Assay results reported in ChEMBL document CHEMBL5131529, “KRAS Inhibitors and Target Engagement Technology: From Undruggable to Druggable Targets in Cancer Therapeutics” (ACS Med Chem Lett, 2022).

Key:
[1] = target: T1, GTPase KRas (Homo sapiens, UniProt P01116, G12C); experiment: Inhibition of BODIPY loaded KRAS G12C mutant (unknown origin) assessed as inhibition of GDP-GTP exchange rate in presence of SOS1/GppNHp incubated for 2 hr by BODIPY fluorescence assay
[2] = target: T1, GTPase KRas; experiment: Inhibition of KRAS G12C mutant in human MIA PaCa-2 cells assessed as reduction in ERK phosphorylation incubated for 2 to 4 hrs by HTRF assay; format: cell-based

T1 sequence (P01116 whole entry G12C): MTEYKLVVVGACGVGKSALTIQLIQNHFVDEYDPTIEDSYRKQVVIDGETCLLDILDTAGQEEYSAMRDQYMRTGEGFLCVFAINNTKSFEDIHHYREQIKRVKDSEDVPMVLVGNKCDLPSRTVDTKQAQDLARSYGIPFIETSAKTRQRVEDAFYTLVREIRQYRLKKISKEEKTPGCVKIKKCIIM

SMILES	IC50 [1] [nM]	IC50 [2] [nM]	IC50 ([2]; mia paca-2) [nM]
C=Cc1ncc2n1CCN(c1nc(OCCN3CCOCC3)nc3c(F)c(-c4cc(O)cc5ccccc45)c(Cl)cc13)C2	100	5000	
C=Cc1ncc2n1CCN(c1nc(=O)n(-c3c(C)ccnc3C(C)C)c3nc(-c4c(O)cccc4F)c(F)cc13)C2	100	5000	5000
C=Cc1ncc2n1CCN(c1nc(OCC3CCCN3C)nc3c(F)c(-c4c(C)ccc5[nH]ncc45)c(Cl)cc13)C2 (stereo not drawn)	100	5000	
C=Cc1ncc2n1CCN(c1nc(OC3CCCN(C)C3)nc3c(F)c(-c4cc(O)cc5ccccc45)c(Cl)cc13)C2 (stereo not drawn)	100	5000	
C=Cc1ncc2n1CCN(c1nc(OC3CCN(C)CC3)nc3c(F)c(-c4cc(O)cc5ccccc45)c(Cl)cc13)C2	100	5000	
C=Cc1ncc2n1CCN(c1nc(OCC3CCCN3C)nc3c(F)c(-c4c(O)cccc4F)c(Cl)cc13)C2 (stereo not drawn)	100	5000	
C=Cc1ncc2n1CCN(c1nc(OC[C@@H]3CCCN3C)nc3c(F)c(-c4cc(O)cc5ccccc45)c(Cl)cc13)C2	100	1000	
C=Cc1ncc2n1CCN(c1nc(=O)n(C(C)C)c3nc(-c4c(O)cccc4F)c(F)cc13)C2	100	5000	
C=Cc1ncc2n1CCN(c1nc(OCC3CCCN3C)nc3c(F)c(-c4cc(O)cc5ccccc45)c(Cl)cc13)C2 (stereo not drawn)	≤ 100	1000	
C=Cc1ncc2n1CCN(c1nc(=O)n(CC3CC3)c3nc(-c4c(O)cccc4F)c(F)cc13)C2	100	5000	
C=Cc1ncc2n1CCN(c1nc(OCCN(C)C)nc3c(F)c(-c4cc(O)cc5ccccc45)c(Cl)cc13)C2	100	1000	
